The text below walks through data of patent publication US20140081017A1, “Histone Deacetylase Inhibitors for Enhancing Activity of Antifungal Agents” (METHYLGENE INC., priority 2012, published 2014).

In brackets after ≈: the same amount, converted by molar mass. Where two headings read alike, the source gives them in different places.

One assay deals with C. glabrata. In words: Checkerboard FIC assay in combination with fluconazole (MIC alone and in combination, FICI). In kind it is cell-based, Candida glabrata. To be noted: for MIC: Nakaseomyces glabratus. The method, then:
The ability of the compounds to synergize with azoles against C. glabrata was evaluated by the checkerboard assay, a common laboratory method used to evaluate synergy, antagonism, and indifference using fractional inhibitory concentrations (FICs) and FIC indices (FICI).
The test compounds were supplied as a powder and dissolved in dimethylsulfoxide (DMSO) on the day of assay. Stock solutions were prepared at 640 ug/mL. Fluconazole was dissolved in deionized water to a stock concentration of 320 ug/mL. All test articles were in solution under these conditions.
(§1) The test organisms and reference isolates were streaked for isolation on Sabouraud agar medium (yeasts) or potato dextrose agar (fungi). Colonies were picked by swab from the medium and resuspended in the appropriate broth containing cryoprotectant. The suspensions were aliquoted into cryogenic vials and maintained at −80° C.
(§2) Prior to testing, the yeast isolates were streaked from the frozen vials onto Sabouraud dextrose agar. The plates were incubated overnight at 35° C. The fungal isolate was grown on potato dextrose agar slants and was incubated for 7-10 days at room temperature.
(§3) Both yeast and fungal isolates were tested in RPMI medium buffered with 0.165 M MOPS (3-(N-morpholino)propanesulfonic acid). The pH of the medium was adjusted to 7.0 with 1 N NaOH. The medium was sterile filtered using a 0.2 um PES (polyethersulfone) filter and stored at 4° C. until used.
FIC values were determined using a broth microdilution method (CLSI; 1, 3). To prepare the test plates, automated liquid handlers (Multidrop 384, Labsystems, Helsinki, Finland; Biomek 2000 and Biomek FX, Beckman Coulter, Fullerton Calif.) were used to conduct serial dilutions and liquid transfers.
The wells of standard 96-well microdilution plates (Costar 3795) were filled with 150 uL of DMSO in columns 2-12. Three hundred microliters of each test compound was added to each well in Column 1 of the plates. The Biomek 2000 was used to make eleven 2-fold serial dilutions in each of these “test compound mother” plates. The wells of the “fluconazole mother plates” were filled with 150 uL of sterile water in rows B-H. Row A of these plates was filled with 300 uL of the fluconazole stock solution. Serial 2-fold dilutions were then prepared from top to bottom by hand, using a multichannel pipette in rows B-G. The “daughter plates” were loaded with 180 uL of RPMI using the Multidrop 384. The Biomek FX was used to transfer 5 uL of compound solution from each well of a fluconazole mother plate to the corresponding well in all of the daughter plates in a single step. Then the Biomek FX was used to transfer 5 uL of compound solution from each well of a test compound mother plate to the corresponding well of the corresponding test compound daughter plate (already containing fluconazole at the appropriate concentrations) in a single step. Row H and Column 12 each contained serial dilutions of the test agent and fluconazole alone, respectively, for determination of the MIC.
Standardized inoculum of each organism was prepared per CLSI methods (CLSI; 1, 3). For yeast isolates, colonies were picked from the primary plate and a suspension was prepared in 0.85% saline to equal a 0.5 McFarland turbidity standard. For the fungal isolate, 1 mL of 0.85% saline was dispensed onto a potato dextrose agar slant onto which the isolate had been inoculated 7-10 days previously. Using a swab, a suspension of the fungus was made. After a short time to allow the heavy particles to settle out, a small quantity of the supernatant was dispensed into 0.85% saline and the suspension was adjusted to equal a 0.5 McFarland turbidity standard. Both yeast and fungal isolates were diluted 1:100 in RPMI and then transferred to compartments of sterile reservoirs divided by length (Beckman Coulter). The Biomek 2000 was used to inoculate the plates. […]

The next assay deals with Candida glabrata. The experiment in a line: Minimal Inhibitory Concentration (MIC) assay, broth microdilution per CLSI.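 As to all read-outs here: two read times 24 hr and 48 hr of incubation.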 The assay is classed as cell-based. To be noted: for MIC: Nakaseomyces glabratus, read-out: Minimum Inhibitory Concentrations against Yeast Isolates, Candida glabrata. The method, then: (§4) The in vitro activities of the inventive compounds (compound(s) herein) against fungi and/or yeasts were determined with isolates Candida albicans, Candida glabrata and Candida parapsilosis. The comparator compounds included fluconazole, caspofungin and amphotericin B.
(§5) The compounds were supplied as a powder, and were dissolved in dimethylsulfoxide (DMSO) the day of assay. Stock solutions were prepared at 10 mg/mL and diluted to a starting stock concentration of 2.56 mg/mL. Amphotericin B was dissolved in DMSO to a stock concentration of 2.56 mg/mL. Fluconazole was dissolved in deionized water to a stock concentration of 2.56 mg/mL. Caspofungin was received as a stock solution of 3.2 mg/mL in DMSO and was diluted to a starting stock concentration of 2.56 mg/mL.
as §1, §2, §3
(§6) The MIC assay method followed the procedure described by the Clinical and Laboratory Standards Institute (CLSI; 1, 2, 3) and employed automated liquid handlers to conduct serial dilutions and liquid transfers. Automated liquid handlers included the Multidrop 384 (Labsystems, Helsinki, Finland), Biomek 2000 and Biomek FX (Beckman Coulter, Fullerton Calif.). The wells in columns 2-12 in standard 96-well microdilution plates (Costar 3795) were filled with 150 ul of 100% DMSO. These would become the ‘mother plates’ from which ‘daughter’ or test plates would be prepared. The compounds (300 uL at 40× the desired top concentration in the test plates) were dispensed into the appropriate well in Column 1 of the mother plates. The Biomek 2000 was used to make serial 1:1 dilutions through Column 11 in the “mother plate”. The wells of Column 12 contained no compounds and were the organism growth control wells.
(§7) The daughter plates were loaded with 185 uL per well of RPMI described above using the Multidrop 384. The daughter plates were prepared using the Biomek FX which transferred 5 μL of the compound solution from each well of a mother plate to the corresponding well of the daughter plate in a single step.
(§8) Standardized inoculum of each organism was prepared per CLSI methods. For yeast isolates, colonies were picked from the streak plate and a suspension was prepared in 0.85% saline. For the fungal isolate, 1 mL of 0.85% saline was dispensed onto the potato dextrose agar slant that had been inoculated 7-10 days previously. Using a swab, a suspension of the fungus was made. After a short time to allow the heavy particles to settle out, a small quantity of the supernatant was dispensed into 0.85% saline and the suspension adjusted to equal a 0.5 McFarland turbidity standard. Both yeast and fungal isolates were diluted 1:100 in RPMI and then transferred to compartments of sterile reservoirs divided by length (Beckman Coulter). The Biomek 2000 was used to inoculate the plates. Daughter plates were placed on the Biomek 2000 work surface reversed so that inoculation took place from low to high compound concentration. The Biomek 2000 delivered 10 μL of standardized inoculum into each well. Thus, the wells of the daughter plates ultimately contained 185 uL of RPMI, 5 uL of the compound solution, and 10 uL of inoculum. […]
(Dilution methods test growth across graded concentrations, often in twofold steps.)

In the next assay the test system is Candida parapsilosis. Described as above. The assay is classed as cell-based. To be noted: for MIC: Lodderomyces parapsilosis, read-out: Minimum Inhibitory Concentrations against Yeast Isolates, Candida parapsilosis. As for the experimental part:
as §4, §5, §1, §2, §3, §6, §7, §8

A further assay concerns Candida albicans. The assay is described as above. The assay is classed as cell-based. The note with it: for MIC: Candida albicans, read-out: Minimum Inhibitory Concentrations against Yeast Isolates, Candida albicans. As for the experimental part: as §4, §5, §1, §2, §3, §6, §7, §8
Setting [1] is: C. glabrata, FICI calculated using a fluconazole MIC of 16 μg/mL.
Setting [2] is: C. glabrata, FICI using a fluconazole MIC of 128 μg/mL.
Setting [3] is: 24 hr reading (first value of cell 24 hr/48 hr).
Setting [4] is: 48 hr reading (second value of cell 24 hr/48 hr).

On to `O=C(Cc1ccc(CCC(F)Cc2ccccc2)cc1)NO` (centres unmarked) [Example 60, 2-(4-(3-fluoro-4-phenylbutyl)phenyl)-N-hydroxyacetamide], for which the “FICI of combination resulting in fluconazole MIC of: 2 ug/mL” value in the assay with C. glabrata (setting [1]) is reported as 0.563. The “FICI of combination resulting in fluconazole MIC of: 4 ug/mL” value with C. glabrata (setting [1]) was 0.625. Further, the “FICI of combination resulting in fluconazole MIC of: 8 ug/mL” value in the assay with C. glabrata (setting [1]) is 0.500. Moreover, the “FICI of combination resulting in fluconazole MIC of: 2 ug/mL (value in parenthesis)” value in the assay on C. glabrata (setting [2]) worked out at 0.516. In the assay with C. glabrata (setting [2]), the “FICI of combination resulting in fluconazole MIC of: 4 ug/mL (value in parenthesis)” value is listed as 0.531. Besides, the “FICI of combination resulting in fluconazole MIC of: 8 ug/mL (value in parenthesis)” value with C. glabrata (setting [2]) is reported as 0.313. Besides, the MIC is 2 µg/mL with C. glabrata (MIC of the example compound alone against C. glabrata in the checkerboard assay, approximately 48 hr, read-out: Methylgene MIC); 2 µg/mL in the assay on C. glabrata (test compound alone, C. glabrata, approx. 48 hr at 35° C., read-out: Compound MIC); 2 µg/mL (≈ 6.64 µM) with Candida glabrata (setting [3]); 2 µg/mL (≈ 6.64 µM) in the assay on Candida glabrata (setting [4]); 4 µg/mL (≈ 13.3 µM) in the assay on Candida parapsilosis (setting [3]); 8 µg/mL (≈ 26.5 µM) in the assay with Candida parapsilosis (setting [4]). Besides, the MIC with Candida albicans (setting [3]) and with Candida albicans (setting [4]) was 4 µg/mL (≈ 13.3 µM) each time. The “Multiple of compound MIC to synergize fluconazole MIC to 2 ug/mL” value in the assay on C. glabrata (concentration in combination as multiple of the compound's MIC alone, fluconazole MIC 2 ug/mL) is reported as “(½x)”. The “Multiple of compound MIC to synergize fluconazole MIC to 4 ug/mL” value in the assay on C. glabrata (concentration in combination as multiple of the compound's MIC alone, fluconazole MIC 4 ug/mL) is listed as “(½x)”. Moreover, the “Multiple of compound MIC to synergize fluconazole MIC to 8 ug/mL” value in the assay with C. glabrata (concentration in combination as multiple of the compound's MIC alone, fluconazole MIC 8 ug/mL) is “(¼x)”. In the assay on C. glabrata (in combination with fluconazole, C. glabrata, fluconazole MIC lowered to 2 ug/mL), the “Concentration of Methylgene compound to synergize fluconazole MIC to 2 ug/mL” value came to 1 µg/mL. Further, the “Concentration of Methylgene compound to synergize fluconazole MIC to 4 ug/mL” value with C. glabrata (in combination with fluconazole, C. glabrata, fluconazole MIC lowered to 4 ug/mL) was 1 µg/mL. Moreover, in the assay on C. glabrata (in combination with fluconazole, C. glabrata, fluconazole MIC lowered to 8 ug/mL), the “Concentration of Methylgene compound to synergize fluconazole MIC to 8 ug/mL” value came to 0.5 µg/mL.
On to `CN(C)CCCOc1ccc(CCCCc2ccc(CC(=O)NO)cc2)cc1` [Example 17, 2-(4-(4-(4-(3-(dimethylamino)propoxy)phenyl)butyl)phe-nyl)-N-hydroxyacetamide], for which the MIC with Candida glabrata (setting [3]), with Candida glabrata (setting [4]), in the assay with Candida parapsilosis (setting [3]), with Candida parapsilosis (setting [4]), with Candida albicans (setting [3]) and in the assay with Candida albicans (setting [4]) was above 64 µg/mL in each case.
As to `C[C@@H]1[C@H](O)[C@@H](C)/C=C/C=C/C=C/C=C/C=C/C=C/C=C/[C@H](O[C@@H]2O[C@H](C)[C@@H](O)[C@H](N)[C@@H]2O)C[C@@H]2O[C@](O)(C[C@@H](O)C[C@@H](O)[C@H](O)CC[C@@H](O)C[C@@H](O)CC(=O)O[C@H]1C)C[C@H](O)[C@H]2C(=O)O` [Amphotericin B, reference compound], the “Minimum Inhibitory Concentrations against Yeast Isolates, Candida glabrata” value is below 0.06 µg/mL in the assay with Candida glabrata (setting [3]) and 0.5 µg/mL in the assay with Candida glabrata (setting [4]). Further, the “Minimum Inhibitory Concentrations against Yeast Isolates, Candida parapsilosis” value was 0.25 µg/mL in the assay on Candida parapsilosis (setting [3]) and 0.5 µg/mL in the assay with Candida parapsilosis (setting [4]). Also, the “Minimum Inhibitory Concentrations against Yeast Isolates, Candida albicans” value is below 0.06 µg/mL in the assay with Candida albicans (setting [3]) and 0.25 µg/mL in the assay with Candida albicans (setting [4]).
On to `O=C(Cc1ccc(CCCCc2ccccc2)o1)NO` [Example 62, N-hydroxy-2-(5-(4-phenylbutyl)furan-2-yl)acetamide], for which the MIC in the assay on Candida glabrata (setting [3]), with Candida glabrata (setting [4]), in the assay on Candida parapsilosis (setting [3]), with Candida parapsilosis (setting [4]), in the assay on Candida albicans (setting [3]) and in the assay with Candida albicans (setting [4]) was 32 µg/mL (≈ 117 µM) each time.
In the case of `O=C(Cc1ccc(CCCCc2ccc(OCCN3CCCC3)cc2)cc1)NO` [Example 18, N-hydroxy-2-(4-(4-(4-(2-(pyrrolidin-1-yl)ethoxy)phenyl)butyl)phenyl)acetamide], the MIC in the assay with Candida glabrata (setting [3]), in the assay with Candida glabrata (setting [4]), in the assay with Candida parapsilosis (setting [3]), in the assay on Candida parapsilosis (setting [4]), with Candida albicans (setting [3]) and with Candida albicans (setting [4]) was above 64 µg/mL each time.
